Measured values from article PMC8288134, “Synthesis, potential antitumor activity, cell cycle analysis, and multitarget mechanisms of novel hydrazones incorporating a 4-methylsulfonylbenzene scaffold: a molecular docking study” (Journal of Enzyme Inhibition and Medicinal Chemistry, 2021).
Like-named read-outs stand apart in the source and are kept apart here.

Experiments:
[1] = test system: SN12C; assay: NCI antitumor screen (SRB); assay type: cell-based; details: Homo sapiens, one dose 10 µM, read-out: Growth inhibition percentage (GI%)
[2] = test system: SK-OV-3; assay: NCI antitumor screen (SRB); assay type: cell-based; details: Homo sapiens, one dose 10 µM, read-out: Growth inhibition percentage (GI%)
[3] = test system: NCI-H226; assay: NCI antitumor screen (SRB); assay type: cell-based; details: Homo sapiens, one dose 10 µM, read-out: Growth inhibition percentage (GI%)
[4] = test system: SW-620; assay: NCI antitumor screen (SRB); assay type: cell-based; details: Homo sapiens, one dose 10 µM, read-out: Growth inhibition percentage (GI%)
[5] = test system: KM12; assay: NCI antitumor screen (SRB); assay type: cell-based; details: Homo sapiens, one dose 10 µM, read-out: Growth inhibition percentage (GI%)
[6] = test system: SR; assay: NCI antitumor screen (SRB); assay type: cell-based; details: Homo sapiens, one dose 10 µM, read-out: Growth inhibition percentage (GI%)
[7] = test system: OVCAR-4; assay: NCI antitumor screen (SRB); assay type: cell-based; details: Homo sapiens, one dose 10 µM, read-out: Growth inhibition percentage (GI%)
[8] = test system: IGROV1; assay: NCI antitumor screen (SRB); assay type: cell-based; details: Homo sapiens, IGROV-1, one dose 10 µM, read-out: Growth inhibition percentage (GI%)
[9] = test system: LOX IMVI; assay: NCI antitumor screen (SRB); assay type: cell-based; details: Homo sapiens, one dose 10 µM, read-out: Growth inhibition percentage (GI%)
[10] = test system: M14; assay: NCI antitumor screen (SRB); assay type: cell-based; details: Homo sapiens, one dose 10 µM, read-out: Growth inhibition percentage (GI%)
[11] = test system: BT-549; assay: NCI antitumor screen (SRB); assay type: cell-based; details: Homo sapiens, one dose 10 µM, read-out: Growth inhibition percentage (GI%)
[12] = test system: HCC-2998; assay: NCI antitumor screen (SRB); assay type: cell-based; details: Homo sapiens, one dose 10 µM, read-out: Growth inhibition percentage (GI%)
[13] = test system: UACC-62; assay: NCI antitumor screen (SRB); assay type: cell-based; details: Homo sapiens, one dose 10 µM, read-out: Growth inhibition percentage (GI%)
[14] = test system: ovarian cancer tumour cell lines; assay: NCI antitumor screen, subpanel; assay type: cell-based; details: 10 µM
[15] = test system: ACHN; assay: NCI antitumor screen (SRB); assay type: cell-based; details: Homo sapiens, one dose 10 µM, read-out: Growth inhibition percentage (GI%)
[16] = test system: NCI-H23; assay: NCI antitumor screen (SRB); assay type: cell-based; details: Homo sapiens, one dose 10 µM, read-out: Growth inhibition percentage (GI%)
[17] = test system: HT29; assay: NCI antitumor screen (SRB); assay type: cell-based; details: Homo sapiens, HT-29, one dose 10 µM, read-out: Growth inhibition percentage (GI%)
[18] = test system: MALME-3M; assay: NCI antitumor screen (SRB); assay type: cell-based; details: Homo sapiens, one dose 10 µM, read-out: Growth inhibition percentage (GI%)
[19] = test system: EKVX; assay: NCI antitumor screen (SRB); assay type: cell-based; details: Homo sapiens, one dose 10 µM, read-out: Growth inhibition percentage (GI%)
[20] = test system: SF-539; assay: NCI antitumor screen (SRB); assay type: cell-based; details: Homo sapiens, one dose 10 µM, read-out: Growth inhibition percentage (GI%)
[21] = test system: OVCAR-5; assay: NCI antitumor screen (SRB); assay type: cell-based; details: Homo sapiens, one dose 10 µM, read-out: Growth inhibition percentage (GI%)
[22] = test system: NCI/ADR-RES; assay: NCI antitumor screen (SRB); assay type: cell-based; details: Homo sapiens, one dose 10 µM, read-out: Growth inhibition percentage (GI%)
[23] = test system: A498; assay: NCI antitumor screen (SRB); assay type: cell-based; details: Homo sapiens, one dose 10 µM, read-out: Growth inhibition percentage (GI%)
[24] = test system: PRMI-8226; assay: NCI antitumor screen (SRB); assay type: cell-based; details: Homo sapiens, one dose 10 µM, read-out: Growth inhibition percentage (GI%)
[25] = test system: OVCAR-8; assay: NCI antitumor screen (SRB); assay type: cell-based; details: Homo sapiens, one dose 10 µM, read-out: Growth inhibition percentage (GI%)
[26] = test system: A549/ATCC; assay: NCI antitumor screen (SRB); assay type: cell-based; details: Homo sapiens, one dose 10 µM, read-out: Growth inhibition percentage (GI%)
[27] = test system: CCRF-CEM; assay: NCI antitumor screen (SRB); assay type: cell-based; details: Homo sapiens, one dose 10 µM, read-out: Growth inhibition percentage (GI%)
[28] = test system: UACC-257; assay: NCI antitumor screen (SRB); assay type: cell-based, human; details: Homo sapiens, one dose 10 µM, read-out: Growth inhibition percentage (GI%)
[29] = test system: HL-60(TB); assay: cells; assay type: cell-based, human; details: Homo sapiens, HL-60, HL-60(TB); one dose 10 µM; read-out: Growth inhibition percentage (GI%)
[30] = test system: U251; assay: NCI antitumor screen (SRB); assay type: cell-based; details: Homo sapiens, U-251, one dose 10 µM, read-out: Growth inhibition percentage (GI%)
[31] = test system: NCI-H460; assay: NCI antitumor screen (SRB); assay type: cell-based; details: Homo sapiens, one dose 10 µM, read-out: Growth inhibition percentage (GI%)
[32] = test system: SF-268; assay: NCI antitumor screen (SRB); assay type: cell-based; details: Homo sapiens, one dose 10 µM, read-out: Growth inhibition percentage (GI%)
[33] = test system: SF-295; assay: NCI antitumor screen (SRB); assay type: cell-based; details: Homo sapiens, one dose 10 µM, read-out: Growth inhibition percentage (GI%)
[34] = test system: HS 578 T; assay: NCI antitumor screen (SRB); assay type: cell-based; details: Homo sapiens, one dose 10 µM, read-out: Growth inhibition percentage (GI%)
[35] = test system: RXF 393; assay: NCI antitumor screen (SRB); assay type: cell-based; details: Homo sapiens, one dose 10 µM, read-out: Growth inhibition percentage (GI%)
[36] = test system: SNB-19; assay: NCI antitumor screen (SRB); assay type: cell-based; details: Homo sapiens, one dose 10 µM, read-out: Growth inhibition percentage (GI%)
[37] = test system: COLO 205; assay: NCI antitumor screen (SRB); assay type: cell-based; details: Homo sapiens, one dose 10 µM, read-out: Growth inhibition percentage (GI%)
[38] = test system: MOLT-4; assay: NCI antitumor screen (SRB); assay type: cell-based; details: Homo sapiens, one dose 10 µM, read-out: Growth inhibition percentage (GI%)
[39] = test system: PC-3; assay: NCI antitumor screen (SRB); assay type: cell-based; details: Homo sapiens, one dose 10 µM, read-out: Growth inhibition percentage (GI%)
[40] = test system: 786-0; assay: NCI antitumor screen (SRB); assay type: cell-based; details: Homo sapiens, one dose 10 µM, read-out: Growth inhibition percentage (GI%)
[41] = test system: MDA-MB-231/ATCC; assay: NCI antitumor screen (SRB); assay type: cell-based; details: Homo sapiens, one dose 10 µM, read-out: Growth inhibition percentage (GI%)
[42] = test system: SNB-75; assay: NCI antitumor screen (SRB); assay type: cell-based; details: Homo sapiens, one dose 10 µM, read-out: Growth inhibition percentage (GI%)
[43] = test system: OVCAR-3; assay: NCI antitumor screen (SRB); assay type: cell-based; details: Homo sapiens, one dose 10 µM, read-out: Growth inhibition percentage (GI%)
[44] = test system: full panel of 59 cancer cell lines; assay: NCI antitumor screen, full panel; details: one dose 10 µM
[45] = test system: CAKI-1; assay: NCI antitumor screen (SRB); assay type: cell-based; details: Homo sapiens, one dose 10 µM, read-out: Growth inhibition percentage (GI%)
[46] = test system: MDA-MB-468; assay: NCI antitumor screen (SRB); assay type: cell-based; details: Homo sapiens, one dose 10 µM, read-out: Growth inhibition percentage (GI%)
[47] = test system: TK-10; assay: NCI antitumor screen (SRB); assay type: cell-based; details: Homo sapiens, one dose 10 µM, read-out: Growth inhibition percentage (GI%)
[48] = test system: SK-MEL-28; assay: NCI antitumor screen (SRB); assay type: cell-based, human; details: Homo sapiens, SK-MEL-28, SK-MEL-28; one dose 10 µM; read-out: Growth inhibition percentage (GI%)
[49] = test system: HCT-116; assay: NCI antitumor screen (SRB); assay type: cell-based; details: Homo sapiens, read-out: Growth inhibition percentage (GI%)
[50] = test system: T-47D; assay: NCI antitumor screen (SRB); assay type: cell-based; details: Homo sapiens, T47D, one dose 10 µM, read-out: Growth inhibition percentage (GI%)
[51] = test system: MCF7; assay: NCI antitumor screen (SRB); assay type: cell-based; details: Homo sapiens, one dose 10 µM, read-out: Growth inhibition percentage (GI%)
[52] = test system: DU-145; assay: NCI antitumor screen (SRB); assay type: cell-based; details: Homo sapiens, one dose 10 µM, read-out: Growth inhibition percentage (GI%)
[53] = test system: UO-31; assay: NCI antitumor screen (SRB); assay type: cell-based, human; details: Homo sapiens, one dose 10 µM, read-out: Growth inhibition percentage (GI%)
[54] = test system: HCT-15; assay: NCI antitumor screen (SRB); assay type: cell-based; details: Homo sapiens, one dose 10 µM, read-out: Growth inhibition percentage (GI%)
[55] = test system: MDA-MB-435; assay: NCI antitumor screen (SRB); assay type: cell-based; details: Homo sapiens, one dose 10 µM, read-out: Growth inhibition percentage (GI%)
[56] = test system: K-562; assay: NCI antitumor screen (SRB); assay type: cell-based; details: Homo sapiens, K562, read-out: Growth inhibition percentage (GI%)

SMILES: Cc1ccc(NC(=O)c2ccc(CN3CCN(C)CC3)cc2)cc1Nc1nccc(-c2cccnc2)n1 [Imatinib, imatinib, reference compound]
- inhibition at 10 µM [1]: < 10%
- inhibition at 10 µM [2]: < 10%
- inhibition at 10 µM [3]: 10.6%
- inhibition at 10 µM [4]: < 10%
- inhibition at 10 µM [5]: < 10%
- inhibition at 10 µM [6]: 14.6%
- inhibition at 10 µM [7]: < 10%
- inhibition at 10 µM [8]: < 10%
- inhibition at 10 µM [9]: 11.6%
- inhibition at 10 µM [10]: < 10%
- inhibition at 10 µM [11]: < 10%
- inhibition at 10 µM [12]: < 10%
- inhibition at 10 µM [13]: < 10%
- GI (range over subpanel cell lines) [14]: < 10.0%
- inhibition at 10 µM [15]: < 10%
- inhibition at 10 µM [16]: 17.1%
- inhibition at 10 µM [17]: 47.1%
- inhibition at 10 µM [18]: < 10%
- inhibition at 10 µM [19]: 15.7%
- inhibition at 10 µM [20]: 24.5%
- inhibition at 10 µM [21]: < 10%
- inhibition at 10 µM [22]: < 10%
- inhibition at 10 µM [23]: 13.7%
- inhibition at 10 µM [24]: 12.6%
- inhibition at 10 µM [25]: < 10%
- inhibition at 10 µM [26]: < 10%
- inhibition at 10 µM [27]: < 10%
- inhibition at 10 µM ([28]; UACC-257, UACC-257): < 10%
- inhibition at 10 µM [29]: < 10%
- inhibition at 10 µM [30]: 10.6%
- inhibition at 10 µM [31]: < 10%
- inhibition at 10 µM [32]: < 10%
- inhibition at 10 µM [33]: 15.1%
- inhibition at 10 µM [34]: < 10%
- inhibition at 10 µM [35]: < 10%
- inhibition at 10 µM [36]: < 10%
- inhibition at 10 µM [37]: < 10%
- inhibition at 10 µM [38]: 18%
- inhibition at 10 µM [39]: 10.6%
- inhibition at 10 µM [40]: < 10%
- inhibition at 10 µM [41]: 11.2%
- inhibition at 10 µM [42]: < 10%
- inhibition at 10 µM [43]: < 10%
- percentage mean growth (MG) ([44]; mean over cell lines): 92.62%
- inhibition at 10 µM [45]: < 10%
- inhibition at 10 µM [46]: 29.1%
- inhibition at 10 µM [47]: < 10%
- inhibition at 10 µM [48]: < 10%
- inhibition at 10 µM [49]: 18.6%
- inhibition at 10 µM [50]: 18.6%
- inhibition at 10 µM [51]: < 10%
- inhibition at 10 µM [52]: 14.4%
- inhibition at 10 µM ([53]; UO-31, UO-31): < 10%
- inhibition at 10 µM [54]: 11.5%
- inhibition at 10 µM [55]: < 10%

SMILES: COc1cc(C=NNC(=O)c2ccc(S(C)(=O)=O)cc2)cc(OC)c1OC [Compound 23, 4-(Methylsulfonyl)-N'-(3,4,5-trimethoxybenzylidene)benzohydrazide]
- inhibition at 10 µM [2]: 14.2%
- inhibition at 10 µM [56]: 37.6%
- inhibition at 10 µM [26]: 22.8%
- inhibition at 10 µM ([28]; UACC-257): 28.6%
- inhibition at 10 µM [29]: 44.2%
- inhibition at 10 µM [37]: 14.6%
- inhibition at 10 µM [38]: 32.6%
- inhibition at 10 µM [42]: 11.3%
- PCE: positive cytotoxic effect (number of cell lines with GI 10 to 100% / total number of cell lines) [44]: 9/59
- inhibition at 10 µM ([53]; UO-31): 10.2%
